# ChEMBL document CHEMBL1201862, “PubChem BioAssay data set” (2004)
#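 Five compound concentrations were applied to cells in 96-well plates for 48 hours; endpoints were derived by simple linear interpolation of the resulting dose-response curve. At the GI50, growth is halved.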 Active and inactive are the calls of the source. Rule as the data show it: active = GI50 up to about 1.1 µM and inactive = higher.
# Experiments:
# Test in all cases: DTP human tumour cell line panel, 48 h
# [1] = tested on: 786-0
# [2] = tested on: A549
# [3] = tested on: ACHN
# [4] = tested on: CCRF-CEM
# [5] = tested on: COLO 205
# [6] = tested on: DLD-1
# [7] = tested on: DMS-114
# [8] = tested on: DMS-273
# [9] = tested on: EKVX
# [10] = tested on: HCC 2998
# [11] = tested on: HCT-116
# [12] = tested on: HCT-15
# [13] = tested on: HL-60
# [14] = tested on: HOP-18
# [15] = tested on: HOP-62
# [16] = tested on: HOP-92
# [17] = tested on: HT-29
# [18] = tested on: IGROV-1
# [19] = tested on: K562
# [20] = tested on: KM-20L2
# [21] = tested on: KM12
# [22] = tested on: LOX IMVI
# [23] = tested on: LXFL 529
# [24] = tested on: M14
# [25] = tested on: M19-MEL
# [26] = tested on: MOLT-4
# [27] = tested on: Malme-3M
# [28] = tested on: NCI-H226
# [29] = tested on: NCI-H23
# [30] = tested on: NCI-H460
# [31] = tested on: NCI-H522
# [32] = tested on: OVCAR-3
# [33] = tested on: OVCAR-5
# [34] = tested on: OVCAR-8
# [35] = tested on: RPMI-8226
# [36] = tested on: RXF 393
# [37] = tested on: SF-268
# [38] = tested on: SF-295
# [39] = tested on: SF-539
# [40] = tested on: SK-MEL-28
# [41] = tested on: SK-MEL-2
# [42] = tested on: SK-MEL-5
# [43] = tested on: SK-OV-3
# [44] = tested on: SN12C
# [45] = tested on: SNB-19
# [46] = tested on: SNB-75
# [47] = tested on: SNB-78
# [48] = tested on: SR
# [49] = tested on: SW-620
# [50] = tested on: TK-10
# [51] = tested on: U-251
# [52] = tested on: UACC-257
# [53] = tested on: UACC-62
# [54] = tested on: UO-31
# [55] = tested on: XF498
compound,measurement,setting,value
COC(=O)C1=C(C(=O)OC)C2(C(=O)OC)OC1(OC)C(C1(C(=O)OC)C(C(=O)OC)=C1C(=O)OC)=C2C(=O)OC (stereo not given),GI50,[1],> 100 µM (inactive)
same,GI50,[2],> 100 µM (inactive)
same,GI50,[3],> 100 µM (inactive)
same,GI50,[4],> 100 µM (inactive)
same,GI50,[5],> 100 µM (inactive)
same,GI50,[6],> 100 µM (inactive)
same,GI50,[7],> 100 µM (inactive)
same,GI50,[8],> 100 µM (inactive)
same,GI50,[9],> 100 µM (inactive)
same,GI50,[10],> 100 µM (inactive)
same,GI50,[11],> 100 µM (inactive)
same,GI50,[12],> 100 µM
same,GI50,[13],> 100 µM (inactive)
same,GI50,[14],> 100 µM (inactive)
same,GI50,[15],> 100 µM (inactive)
same,GI50,[16],> 100 µM (inactive)
same,GI50,[17],> 100 µM (inactive)
same,GI50,[18],> 100 µM (inactive)
same,GI50,[19],> 100 µM (inactive)
same,GI50,[20],> 100 µM (inactive)
same,GI50,[21],> 100 µM (inactive)
same,GI50,[22],> 100 µM (inactive)
same,GI50,[23],> 100 µM (inactive)
same,GI50,[24],> 100 µM (inactive)
same,GI50,[25],> 100 µM (inactive)
same,GI50,[26],> 100 µM (inactive)
same,GI50,[27],> 100 µM (inactive)
same,GI50,[28],> 100 µM (inactive)
same,GI50,[29],> 100 µM (inactive)
same,GI50,[30],> 100 µM (inactive)
same,GI50,[31],> 100 µM (inactive)
same,GI50,[32],> 100 µM (inactive)
same,GI50,[33],> 100 µM (inactive)
same,GI50,[34],> 100 µM (inactive)
same,GI50,[35],> 100 µM (inactive)
same,GI50,[36],> 100 µM (inactive)
same,GI50,[37],> 100 µM (inactive)
same,GI50,[38],> 100 µM (inactive)
same,GI50,[39],> 100 µM (inactive)
same,GI50,[40],> 100 µM (inactive)
same,GI50,[41],> 100 µM (inactive)
same,GI50,[42],> 100 µM (inactive)
same,GI50,[43],> 100 µM (inactive)
same,GI50,[44],> 100 µM (inactive)
same,GI50,[45],> 100 µM (inactive)
same,GI50,[46],> 100 µM (inactive)
same,GI50,[47],> 100 µM (inactive)
same,GI50,[48],> 100 µM (inactive)
same,GI50,[49],> 100 µM (inactive)
same,GI50,[50],> 100 µM (inactive)
same,GI50,[51],> 100 µM (inactive)
same,GI50,[52],> 100 µM (inactive)
same,GI50,[53],> 100 µM (inactive)
same,GI50,[54],> 100 µM (inactive)
same,GI50,[55],> 100 µM (inactive)
